Reference: article PMC7083880 (Nature Communications, 2020)

Key:
FTSJ1 = target: T1, FTSJ1 (Homo sapiens, UniProt Q9UET6); assay: UGA readthrough luciferase assay with FTSJ1 overexpression; type: cell-based
T1 construct: host or cells: HeLa
T1 sequence (Q9UET6 1-329): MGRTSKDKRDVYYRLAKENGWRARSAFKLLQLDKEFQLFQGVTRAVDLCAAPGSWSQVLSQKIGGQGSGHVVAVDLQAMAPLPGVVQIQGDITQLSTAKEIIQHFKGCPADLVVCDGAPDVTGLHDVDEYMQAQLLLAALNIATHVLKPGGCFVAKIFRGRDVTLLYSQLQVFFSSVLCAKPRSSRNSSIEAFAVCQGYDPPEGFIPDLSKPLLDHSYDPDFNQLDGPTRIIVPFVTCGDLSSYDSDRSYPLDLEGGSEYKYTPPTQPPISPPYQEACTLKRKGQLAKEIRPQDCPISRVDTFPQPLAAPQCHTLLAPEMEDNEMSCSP
Excerpt: (§1) Firefly luciferase from HEK293FT cells transfected with the Fluc-int-UGA construct was immunoprecipitated and digested with trypsin. The MS/MS spectrum of the peptide containing the PTC position and the sequence determination are shown. The upper red and blue sequences indicate the amino acids validated, respectively, by detection of Nter and Cter peptide fragments (b and y ion series). Peptide fragments y6 and y7 clearly identify tryptophan (W) at the PTC position. The black peaks correspond to non-attributed mass-to-charge ratio (m/z) values. […] Readthrough efficiency was determined by measuring luciferase activity in HeLa cells co-transfected with the firefly luciferase construct described in Fig. 1b and with increasing amounts of an expression vector for either FTSJ1 or CTU1 (0.5, 1, or 2 µg). The empty expression vector (E.v.) was used as control. […] The experiment was performed twice and the results of both experiments (Exp1 and Exp2) are shown. c Western blot analysis of FTSJ1 and CTU1. d 2′-O-methylation analysis of tRNA^Trp, tRNA^SER, and tRNA^GLN by RiboMethSeq. […] A molecular weight marker is indicated to the left of each gel. p-values (p) were calculated using Student’s t-test. Source data are provided as a Source Data file.
(§2) Among the enzymes modifying tRNAs liable to recognize a stop codon by extended wobbling, human FTSJ1 (TRM7 in yeast) exclusively modifies tRNAs involved in UGA readthrough. In addition to other tRNA targets, FTSJ1 methylates the cytosine at position 34 of tRNA^Trp. Inhibition of this modification could increase the capacity of tRNA^Trp to misdecode and recognize the UGA stop codon. […] FTSJ1 and CTU1 overexpression were assessed by western-blot analysis (Fig. 5c).

[1] = system: firefly luciferase construct with UGA PTC in HeLa cells; assay: UGA readthrough luciferase assay with empty expression vector (E.v.) control; type: cell-based, human;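 as to luciferase activity, average: DAP exposure for 24 h before luciferase measurement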;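 as to luciferase activity, exp2: DAP exposure for 24 h before luciferase measurement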
Excerpt: as §1, §2

Nc1nc(N)c2[nH]cnc2n1 [DAP, 2,6-diaminopurine]
luciferase activity, exp1 (FTSJ1; 1µg FTSJ1, 600µM): 22687.5
luciferase activity, exp1*1,5 (FTSJ1; 1µg FTSJ1, 600µM): 34031.2
luciferase activity, exp2 (FTSJ1; 1µg FTSJ1, 600µM): 110230
luciferase activity, average (FTSJ1; 2µg FTSJ1, 0.39µM): 748.25
luciferase activity, exp1 (FTSJ1; 2µg FTSJ1, 0.39µM): 541
luciferase activity, exp1*1,5 (FTSJ1; 2µg FTSJ1, 0.39µM): 811.5
luciferase activity, exp2 (FTSJ1; 2µg FTSJ1, 0.39µM): 685
luciferase activity, average (FTSJ1; 2µg FTSJ1, 0.78µM): 885.625
luciferase activity, exp1 (FTSJ1; 2µg FTSJ1, 0.78µM): 619.5
luciferase activity, exp1*1,5 (FTSJ1; 2µg FTSJ1, 0.78µM): 929.25
luciferase activity, exp2 (FTSJ1; 2µg FTSJ1, 0.78µM): 842
luciferase activity, average (FTSJ1; 2µg FTSJ1, 1.56µM): 1120.12
luciferase activity, exp1 (FTSJ1; 2µg FTSJ1, 1.56µM): 798.5
luciferase activity, exp1*1,5 (FTSJ1; 2µg FTSJ1, 1.56µM): 1197.75
luciferase activity, exp2 (FTSJ1; 2µg FTSJ1, 1.56µM): 1042.5
luciferase activity, average (FTSJ1; 2µg FTSJ1, 6.25µM): 2590.25
luciferase activity, exp1 (FTSJ1; 2µg FTSJ1, 6.25µM): 1505
luciferase activity, exp1*1,5 (FTSJ1; 2µg FTSJ1, 6.25µM): 2257.5
luciferase activity, exp2 (FTSJ1; 2µg FTSJ1, 6.25µM): 2923
luciferase activity, average (FTSJ1; 2µg FTSJ1, 25µM): 6098.62
luciferase activity, exp1 (FTSJ1; 2µg FTSJ1, 25µM): 3067.5
luciferase activity, exp1*1,5 (FTSJ1; 2µg FTSJ1, 25µM): 4601.25
luciferase activity, exp2 (FTSJ1; 2µg FTSJ1, 25µM): 7596
luciferase activity, average (FTSJ1; 2µg FTSJ1, 100µM): 13866.6
luciferase activity, exp1 (FTSJ1; 2µg FTSJ1, 100µM): 8407.5
luciferase activity, exp1*1,5 (FTSJ1; 2µg FTSJ1, 100µM): 12611.2
luciferase activity, exp2 (FTSJ1; 2µg FTSJ1, 100µM): 15122
luciferase activity, average (FTSJ1; 2µg FTSJ1, 300µM): 32953.2
luciferase activity, exp1 (FTSJ1; 2µg FTSJ1, 300µM): 15279
luciferase activity, exp1*1,5 (FTSJ1; 2µg FTSJ1, 300µM): 22918.5
luciferase activity, exp2 (FTSJ1; 2µg FTSJ1, 300µM): 42988
luciferase activity, average (FTSJ1; 2µg FTSJ1, 600µM): 35768.5
luciferase activity, exp1 (FTSJ1; 2µg FTSJ1, 600µM): 13538
luciferase activity, exp1*1,5 (FTSJ1; 2µg FTSJ1, 600µM): 20307
luciferase activity, exp2 (FTSJ1; 2µg FTSJ1, 600µM): 51230
Effect of FTSJ1 overexpression on DAP-promoted readthrough (FTSJ1; HeLa, pFluc-int-UGA): strongly reduce DAP-promoted readthrough
luciferase activity, average ([1]; 0.39µM): 1690.75
luciferase activity, exp1 ([1]; 0.39µM): 838
luciferase activity, exp1*1,5 ([1]; 0.39µM): 1257
luciferase activity, exp2 ([1]; 0.39µM): 2124.5
luciferase activity, average ([1]; 0.78µM): 2398.5
luciferase activity, exp1 ([1]; 0.78µM): 1130
luciferase activity, exp1*1,5 ([1]; 0.78µM): 1695
luciferase activity, exp2 ([1]; 0.78µM): 3102
luciferase activity, average ([1]; 1.56µM): 4502.75
luciferase activity, exp1 ([1]; 1.56µM): 2583
luciferase activity, exp1*1,5 ([1]; 1.56µM): 3874.5
luciferase activity, exp2 ([1]; 1.56µM): 5131
luciferase activity, average ([1]; 6.25µM): 33564.1
luciferase activity, exp1 ([1]; 6.25µM): 10235.5
luciferase activity, exp1*1,5 ([1]; 6.25µM): 15353.2
luciferase activity, exp2 ([1]; 6.25µM): 51775
luciferase activity, average ([1]; 25µM): 96238.8
luciferase activity, exp1 ([1]; 25µM): 36932
luciferase activity, exp1*1,5 ([1]; 25µM): 55398
luciferase activity, exp2 ([1]; 25µM): 137080
luciferase activity, average ([1]; 100µM): 228679
luciferase activity, exp1 ([1]; 100µM): 118458
luciferase activity, exp1*1,5 ([1]; 100µM): 177688
luciferase activity, exp2 ([1]; 100µM): 279670
luciferase activity, average ([1]; 300µM): 215676
luciferase activity, exp1 ([1]; 300µM): 106186
luciferase activity, exp1*1,5 ([1]; 300µM): 159278
luciferase activity, exp2 ([1]; 300µM): 272074
luciferase activity, average ([1]; 600µM): 184925
luciferase activity, exp1 ([1]; 600µM): 75195.5
luciferase activity, exp1*1,5 ([1]; 600µM): 112793
luciferase activity, exp2 ([1]; 600µM): 257056
